≈ marks a conversion by molar mass, not a printed value. Read-outs that look alike come from different tables or passages of the source.
How the values were obtained:
[1] = tested on: K. pneumoniae NVT1001 strains with aminoglycoside resistance plasmids; experiment: Etest MIC of aminoglycosides, aminoglycoside-modifying enzyme or 16S rRNA methylase (Table 13); format: cell-based, Klebsiella pneumoniae; conditions: for effects on the MIC / resistance: production of 16S rRNA methylase, ArmA and RmtB
Experimental: DNA fragments of the resistance genes along with their flanking regions were amplified from clinical plasmids via PCR with specific primer pairs. The resulting PCR fragments were digested and then cloned into the plasmid pACYC177 or pACYC184. The resulting plasmids were then transformed into K. pneumoniae strain NVT1001 via electroporation. The recombinant bacteria were plated onto LB agar plates containing kanamycin (50 mg/L) or chloramphenicol (50 mg/L), and the presence of the cloned gene was confirmed via PCR and DNA sequencing.
(§1) The MICs of antibiotics were determined using the Etest (Biodisk AB, Sweden) according to the manufacturer's instructions. The MICs from the Etest, which fall between standard two-fold dilutions, were rounded up to the next highest two-fold value. The MICs of ceftazidime and cefotaxime against K. pneumoniae NVT1001 harbouring the pACYC177 plasmid with blaOXA-48 were further determined using a broth microdilution test according to the recommendations of the CLSI,^25 and the results were interpreted according to the breakpoints established by the CLSI in 2017.^25 Meanwhile, due to the lack of CLSI breakpoints in 2016 and 2017, the results for cephalothin were interpreted according to the breakpoints established by the CLSI in 2015,^26 and the results for moxifloxacin were interpreted according to the breakpoints established by the EUCAST in 2017.^27

[2] = tested on: K. pneumoniae NVT1001 and its ΔompK35/36 and/or ΔramR mutants; experiment: Etest MIC, OmpK35/36 loss and AcrAB-TolC overexpression (ΔramR) strains (Table 6); format: cell-based, Klebsiella pneumoniae; conditions: Klebsiella pneumoniae
Experimental: as §1

[3] = tested on: A. baumannii KW1 strains with aminoglycoside resistance plasmids; experiment: Etest MIC of aminoglycosides, aminoglycoside-modifying enzyme or 16S rRNA methylase (Table 19); format: cell-based, Acinetobacter baumannii; conditions: for effects on the MIC: production of aminoglycoside-modifying enzymes; for effects on the MIC / resistance: production of 16S rRNA methylase, ArmA
Experimental: DNA fragments of the resistance genes along with their flanking regions were amplified from clinical plasmids via PCR with specific primer pairs. The resulting PCR fragments were digested and then cloned into the plasmid pYMAb5 or pYMAb5Tc. The resulting plasmids were then transformed into A. baumannii KW1 via electroporation.
as §1

[4] = ΔramRΔ35/36, ΔramRΔompK35/36 mutant
[5] = NVT1001, no supplemental plasmid
[6] = NVT1001 with AAC(3)-IId on pACYC184
[7] = NVT1001 with AAC(3)-IVa on pACYC184
[8] = NVT1001 with AAC(6′)-Ib-cr on pACYC184
[9] = NVT1001 with ANT(2″)-Ia on pACYC184
[10] = NVT1001 with ANT(3″)-Ia on pACYC184
[11] = NVT1001 with APH(3′)-IIa on pACYC184
[12] = NVT1001 with APH(3′)-Ia on pACYC184
[13] = NVT1001 with StrA-StrB on pACYC184
[14] = KW1 with AAC(3)-IIa on pYMAb5Tc
[15] = KW1 with ANT(2”)-Ia on pYMAb5Tc
[16] = KW1 with ANT(3”)-Ia on pYMAb5Tc
[17] = KW1 with APH(3')-Ia on pYMAb5Tc
[18] = KW1 with APH(3')-VIa on pYMAb5Tc
[19] = KW1 with shuttle vector pYMAb5Tc

| SMILES | MIC ([2]; WT, NVT1001, read-out: MIC) [µg/mL] | MIC [1, 5] [µg/mL] | MIC [1, 6] [µg/mL] | MIC [1, 7] [µg/mL] | MIC [1, 8] [µg/mL] | MIC [1, 9] [µg/mL] | MIC [1, 10] [µg/mL] | MIC [1, 11] [µg/mL] | MIC [1, 12] [µg/mL] | MIC ([1]; NVT1001 with ArmA on pACYC184) [µg/mL] | MIC ([1]; NVT1001 with RmtB on pACYC184) [µg/mL] | MIC [1, 13] [µg/mL] | MIC ([3]; KW1, no supplemental plasmid) [µg/mL] | MIC [3, 14] [µg/mL] | MIC [3, 15] [µg/mL] | MIC [3, 16] [µg/mL] | MIC [3, 17] [µg/mL] | MIC [3, 18] [µg/mL] | MIC ([3]; KW1 with ArmA on pYMAb5Tc) [µg/mL] | MIC [3, 19] [µg/mL] | also measured |
| --- | --- | --- | --- | --- | --- | --- | --- | --- | --- | --- | --- | --- | --- | --- | --- | --- | --- | --- | --- | --- | --- |
| NCC[C@H](O)C(=O)N[C@@H]1C[C@H](N)[C@@H](O[C@H]2O[C@H](CN)[C@@H](O)[C@H](O)[C@H]2O)[C@H](O)[C@H]1O[C@H]1O[C@H](CO)[C@@H](O)[C@H](N)[C@H]1O [Amikacin] | 2 (≈ 3.42 µM) | – | – | – | – | – | – | – | – | – | – | – | – | – | – | – | – | – | – | – | susceptibility category ([1]; strains with different aminoglycoside-modifying enzymes): susceptible; MIC ([2]; Δ35, ΔompK35 mutant): 2 µg/mL (≈ 3.42 µM); MIC ([2]; Δ35/36, ΔompK35/36 mutant): 2 µg/mL (≈ 3.42 µM); MIC ([2]; Δ36, ΔompK36 mutant): 2 µg/mL (≈ 3.42 µM); MIC ([2]; ΔramR mutant): 2 µg/mL (≈ 3.42 µM); MIC ([2]; ΔramRΔ35, ΔramRΔompK35 mutant): 2 µg/mL (≈ 3.42 µM); MIC [2, 4]: 2 µg/mL (≈ 3.42 µM); MIC ([2]; ΔramRΔ36, ΔramRΔompK36 mutant): 2 µg/mL (≈ 3.42 µM); effects on the MIC [3]: no increase effects |
| NCC[C@H](O)C(=O)N[C@@H]1C[C@H](N)[C@@H](O[C@H]2O[C@H](CN)[C@@H](O)[C@H](O)[C@H]2O)[C@H](O)[C@H]1O[C@H]1O[C@H](CO)[C@@H](O)[C@H](N)[C@H]1O [AMK] | – | 2 | 2 | 2 | 8 | 2 | 2 | 2 | 2 | >256 | >256 | 2 | 2 | 2 | 2 | 2 | 2 | 2 | >256 | 2 | – |
| CN[C@@H]1[C@H](O)[C@H](NC)[C@H]2O[C@@]3(O)C(=O)C[C@@H](C)O[C@H]3O[C@@H]2[C@H]1O [SPT] | – | 16 | 16 | 16 | 16 | 16 | >1024 | 16 | 16 | 16 | 16 | 16 | 24 | 24 | 24 | 192 | 24 | 24 | 24 | 24 | – |
| [H]/N=C(/N)N[C@H]1[C@H](O)[C@@H](O)[C@H](O[C@@H]2O[C@@H](C)[C@](O)(C=O)[C@H]2O[C@@H]2O[C@@H](CO)[C@H](O)[C@@H](O)[C@@H]2NC)[C@@H](N/C(N)=N\[H])[C@@H]1O [Streptomycin] | 2 (≈ 3.44 µM) | – | – | – | – | – | – | – | – | – | – | – | – | – | – | – | – | – | – | – | effects on the MIC / resistance [1]: not associated with observable effects; MIC ([2]; Δ35, ΔompK35 mutant): 4 µg/mL (≈ 6.88 µM); MIC ([2]; Δ35/36, ΔompK35/36 mutant): 4 µg/mL (≈ 6.88 µM); MIC ([2]; Δ36, ΔompK36 mutant): 4 µg/mL (≈ 6.88 µM); MIC ([2]; ΔramR mutant): 2 µg/mL (≈ 3.44 µM); MIC ([2]; ΔramRΔ35, ΔramRΔompK35 mutant): 2 µg/mL (≈ 3.44 µM); MIC [2, 4]: 4 µg/mL (≈ 6.88 µM); MIC ([2]; ΔramRΔ36, ΔramRΔompK36 mutant): 4 µg/mL (≈ 6.88 µM); effects on the MIC / resistance [3]: not associated with increase effects; effects on the MIC [3]: no increase effects |
| CN[C@@H]1[C@H](O[C@H]2[C@H](O[C@H]3[C@H](O)[C@@H](O)[C@H](N=C(N)N)[C@@H](O)[C@@H]3N=C(N)N)O[C@@H](C)[C@]2(O)C=O)O[C@@H](CO)[C@H](O)[C@H]1O [STR] | – | 2 | 2 | 2 | 2 | 2 | 16 | 2 | 2 | 2 | 2 | 1024 | 12 | 8 | 8 | 8 | 12 | 12 | 8 | 12 | – |
| NC[C@H]1O[C@H](O[C@H]2[C@H](O)[C@@H](O[C@H]3O[C@H](CO)[C@@H](O)[C@H](N)[C@H]3O)[C@H](N)C[C@@H]2N)[C@H](N)C[C@@H]1O [TOB] | – | 0.5 | 4 | >256 | 8 | 64 | 0.5 | 0.5 | 1 | >256 | >256 | 0.5 | 0.5 | 0.5 | 2 | 0.5 | 0.5 | 0.5 | >256 | 0.5 | – |
| CCN[C@@H]1C[C@H](N)[C@@H](O[C@H]2OC(CN)=CC[C@H]2N)[C@H](O)[C@H]1O[C@H]1OC[C@](C)(O)[C@H](NC)[C@H]1O [NET] | – | 0.5 | 4 | 64 | 8 | 1 | 0.5 | 0.5 | 0.5 | >256 | >256 | 0.5 | 1.5 | 1.5 | 1.5 | 1.5 | 1.5 | 1.5 | >256 | 1.5 | – |
| NC[C@@H]1O[C@@H](O[C@H]2[C@H](O)[C@@H](O[C@H]3O[C@H](CO)[C@@H](O)[C@H](N)[C@H]3O)[C@H](N)C[C@@H]2N)[C@@H](O)[C@H](O)[C@H]1O [KAN] | – | 2 | 4 | 8 | 32 | >256 | 2 | >256 | >256 | >256 | >256 | 2 | 2 | 2 | 4 | 2 | 16 | 16 | >256 | 2 | – |
| CN[C@@H]1[C@H](O)[C@H](NC)[C@H]2O[C@@]3(O)C(=O)C[C@@H](C)O[C@H]3O[C@@H]2[C@H]1O [Spectinomycin] | 16 (≈ 48.1 µM) | – | – | – | – | – | – | – | – | – | – | – | – | – | – | – | – | – | – | – | effects on the MIC / resistance [1]: not associated with observable effects; MIC ([2]; Δ35, ΔompK35 mutant): 16 µg/mL (≈ 48.1 µM); MIC ([2]; Δ35/36, ΔompK35/36 mutant): 16 µg/mL (≈ 48.1 µM); MIC ([2]; Δ36, ΔompK36 mutant): 16 µg/mL (≈ 48.1 µM); MIC ([2]; ΔramR mutant): 16 µg/mL (≈ 48.1 µM); MIC ([2]; ΔramRΔ35, ΔramRΔompK35 mutant): 16 µg/mL (≈ 48.1 µM); MIC [2, 4]: 16 µg/mL (≈ 48.1 µM); MIC ([2]; ΔramRΔ36, ΔramRΔompK36 mutant): 16 µg/mL (≈ 48.1 µM); effects on the MIC / resistance [3]: not associated with increase effects |

Source: patent publication US10760110B2, “Antibiotic testing and screening system” (priority 2017, dated 2020)
